# Data reported in PubChem BioAssay (NCI).
#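 Each compound was tested at five concentrations against cells in 96-well plates for 48 hours. GI50 = concentration required for 50% inhibition of growth. TGI marks complete inhibition of growth.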
# Columns and labels:
# Experiment in all cases: inhibition of tumour cell growth, NCI panel, 48 h
# 786-0 renal = system: 786-0 renal
# A498 renal = system: A498 renal
# A549 NSCLC = system: A549 NSCLC
# ACHN renal = system: ACHN renal
# BT-549 breast = system: BT-549 breast
# CCRF-CEM leukemia = system: CCRF-CEM leukemia
# DU-145 prostate = system: DU-145 prostate
# EKVX NSCLC = system: EKVX NSCLC
# HCC-2998 colon = system: HCC-2998 colon
# HCT-116 colon = system: HCT-116 colon
# HCT-15 colon = system: HCT-15 colon
# HL-60(TB) leukemia = system: HL-60(TB) leukemia
# HOP-62 NSCLC = system: HOP-62 NSCLC
# HOP-92 NSCLC = system: HOP-92 NSCLC
# HS 578T breast = system: HS 578T breast
# HT29 colon = system: HT29 colon
# IGROV1 ovarian = system: IGROV1 ovarian
# KM12 colon = system: KM12 colon
# LOX IMVI melanoma = system: LOX IMVI melanoma
# M14 melanoma = system: M14 melanoma
# MALME-3M melanoma = system: MALME-3M melanoma
# MCF7 breast = system: MCF7 breast
# MDA-MB-231 breast = system: MDA-MB-231 breast
# MDA-MB-435 = system: MDA-MB-435
# MOLT-4 leukemia = system: MOLT-4 leukemia
# NCI-H226 lung = system: NCI-H226 lung
# NCI-H23 lung = system: NCI-H23 lung
smiles,measurement,setting,value
CCN1CCN(CCC(=O)Nc2cccc(-n3cc(-c4ccncc4)c(-c4ccc(Cl)c(OC)c4)n3)c2)CC1,GI50,786-0 renal,701 nM
same,TGI,786-0 renal,2200 nM
same,GI50,A498 renal,676 nM
same,TGI,A498 renal,2740 nM
same,GI50,A549 NSCLC,593 nM
same,TGI,A549 NSCLC,2290 nM
same,GI50,ACHN renal,782 nM
same,TGI,ACHN renal,2710 nM
same,GI50,BT-549 breast,1380 nM
same,TGI,BT-549 breast,4430 nM
same,GI50,CCRF-CEM leukemia,374 nM
same,TGI,CCRF-CEM leukemia,10300 nM
same,GI50,DU-145 prostate,432 nM
same,TGI,DU-145 prostate,5960 nM
same,GI50,EKVX NSCLC,1060 nM
same,TGI,EKVX NSCLC,4760 nM
same,GI50,HCC-2998 colon,1270 nM
same,TGI,HCC-2998 colon,2630 nM
same,GI50,HCT-116 colon,374 nM
same,TGI,HCT-116 colon,1620 nM
same,GI50,HCT-15 colon,491 nM
same,TGI,HCT-15 colon,2160 nM
same,GI50,HL-60(TB) leukemia,340 nM
same,TGI,HL-60(TB) leukemia,1130 nM
same,GI50,HOP-62 NSCLC,697 nM
same,TGI,HOP-62 NSCLC,2430 nM
same,GI50,HOP-92 NSCLC,776 nM
same,TGI,HOP-92 NSCLC,6430 nM
same,GI50,HS 578T breast,454 nM
same,TGI,HS 578T breast,3850 nM
same,GI50,HT29 colon,381 nM
same,TGI,HT29 colon,1220 nM
same,GI50,IGROV1 ovarian,1090 nM
same,TGI,IGROV1 ovarian,5180 nM
same,GI50,KM12 colon,394 nM
same,TGI,KM12 colon,1680 nM
same,GI50,LOX IMVI melanoma,445 nM
same,TGI,LOX IMVI melanoma,1660 nM
same,GI50,M14 melanoma,387 nM
same,TGI,M14 melanoma,1730 nM
same,GI50,MALME-3M melanoma,765 nM
same,TGI,MALME-3M melanoma,2350 nM
same,GI50,MCF7 breast,267 nM
same,TGI,MCF7 breast,1450 nM
same,GI50,MDA-MB-231 breast,1210 nM
same,TGI,MDA-MB-231 breast,2920 nM
same,GI50,MDA-MB-435,123 nM
same,TGI,MDA-MB-435,350 nM
same,GI50,MOLT-4 leukemia,661 nM
same,TGI,MOLT-4 leukemia,5760 nM
same,GI50,NCI-H226 lung,1260 nM
same,TGI,NCI-H226 lung,7310 nM
same,GI50,NCI-H23 lung,1040 nM
same,TGI,NCI-H23 lung,3560 nM
